Measurements: ChEMBL document CHEMBL1201862, “PubChem BioAssay data set” (2004)
Several values for one entry are separate records, joined by “and”; a condition that tells them apart may be missing. Equal values may be shown once.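 Protocol summary: plate cells (96-well), add compound at 5 concentrations, incubate 48 h, interpolate endpoints linearly. GI50 is the concentration that inhibits growth by half.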 Activity calls are given as the source filed them. No stated cut-off is given here; in the data, active = GI50 up to about 1.1 µM and inactive = higher.

What was measured:
Experiment in all cases: DTP human tumour cell line panel, 48 h
MCF7 = tested on: MCF7
OVCAR-5 = tested on: OVCAR-5
A498 = tested on: A498
HCC 2998 = tested on: HCC 2998
CAKI-1 = tested on: CAKI-1
ACHN = tested on: ACHN
SF-539 = tested on: SF-539
SK-OV-3 = tested on: SK-OV-3
OVCAR-3 = tested on: OVCAR-3
SW-620 = tested on: SW-620
DU-145 = tested on: DU-145
CCRF-CEM = tested on: CCRF-CEM
MDA-MB-231 = tested on: MDA-MB-231
SK-MEL-5 = tested on: SK-MEL-5
A549 = tested on: A549
MDA-MB-435 = tested on: MDA-MB-435
MDA-N = tested on: MDA-N
RXF 393 = tested on: RXF 393
HCT-116 = tested on: HCT-116
SR = tested on: SR

Measured: GI50

O=C(CCN1CCCCC1)Nc1ccc2c(c1)C(=O)c1ccc(NC(=O)CCN3CCCCC3)cc1C2=O
inactive: MCF7 2.31 µM | OVCAR-5 16.5 µM | A498 13.7 µM | HCC 2998 4.45 µM | CAKI-1 12.6 µM | ACHN 11.6 µM | SF-539 2.61 µM | SK-OV-3 13.2 µM | OVCAR-3 8.11 µM | SW-620 2.1 µM | DU-145 14 µM | CCRF-CEM 2.37 µM | MDA-MB-231 2.04 µM | SK-MEL-5 5.71 µM | A549 4.84 µM | MDA-MB-435 1.82 µM | MDA-N 1.65 µM | RXF 393 3.85 µM | HCT-116 1.71 µM | SR 2.47 µM

CCC(C)C1=C(O)[N+]2([O-])Oc3ccc(-c4c(O)c(O)c(-c5ccc(OC(C)=O)cc5)c(OC(C)=O)c4OC(C)=O)cc3OC2(C(C)CC)C(=O)N1O (stereo not given)
inactive: MCF7 > 50 µM | OVCAR-5 > 50 µM | A498 19.3 µM | HCC 2998 11.9 µM | CAKI-1 > 50 µM | ACHN > 50 µM | SF-539 > 50 µM | SK-OV-3 > 50 µM | OVCAR-3 > 50 µM | SW-620 24.2 µM | DU-145 > 50 µM | CCRF-CEM 19.3 µM and 19.2 µM | MDA-MB-231 > 50 µM | SK-MEL-5 > 50 µM and 29.2 µM | A549 > 50 µM and 29.2 µM | MDA-MB-435 26.1 µM and 22.9 µM | MDA-N 36.3 µM and 24.3 µM | RXF 393 > 50 µM | SR 22.3 µM and 13.9 µM

NC(=O)c1nnsc1NC=O
inactive: MCF7 > 100 µM | OVCAR-5 > 100 µM | A498 > 100 µM | HCC 2998 > 100 µM | CAKI-1 > 100 µM | ACHN > 100 µM | SK-OV-3 > 100 µM | SW-620 > 100 µM | DU-145 > 100 µM | CCRF-CEM > 100 µM | MDA-MB-231 > 100 µM | SK-MEL-5 > 100 µM | A549 > 100 µM | MDA-MB-435 > 100 µM | MDA-N > 100 µM | RXF 393 > 100 µM | HCT-116 > 100 µM | SR > 100 µM

Cc1cc2c(C)cc(=O)[nH]c2cc1N
inactive: MCF7 67.5 µM | OVCAR-5 > 100 µM | A498 > 100 µM | HCC 2998 61.4 µM | CAKI-1 > 100 µM | ACHN > 100 µM | SF-539 > 100 µM | OVCAR-3 > 100 µM | SW-620 > 100 µM | DU-145 > 100 µM | CCRF-CEM > 100 µM | MDA-MB-231 46.9 µM | SK-MEL-5 > 100 µM | A549 > 100 µM | MDA-MB-435 > 100 µM | MDA-N > 100 µM | RXF 393 > 100 µM | HCT-116 > 100 µM | SR > 100 µM

O=S(=O)(O)c1c(Cl)cc(O)c2ncccc12
inactive: MCF7 > 100 µM | OVCAR-5 > 100 µM | A498 > 100 µM | HCC 2998 > 100 µM | CAKI-1 > 100 µM | ACHN > 100 µM | SF-539 > 100 µM | OVCAR-3 > 100 µM | SW-620 > 100 µM | DU-145 > 100 µM | CCRF-CEM > 100 µM | MDA-MB-231 > 100 µM | SK-MEL-5 > 100 µM | A549 > 100 µM | MDA-MB-435 > 100 µM | MDA-N > 100 µM | RXF 393 > 100 µM | HCT-116 > 100 µM | SR > 100 µM

COc1ccc(C(=C2C(=O)OC(=O)C2=C(C)C)c2ccc(OC)cc2)cc1
inactive: MCF7 > 100 µM | OVCAR-5 79.1 µM | A498 > 100 µM | HCC 2998 > 100 µM | CAKI-1 > 100 µM | ACHN > 100 µM | SF-539 > 100 µM | SK-OV-3 > 100 µM | OVCAR-3 22 µM | SW-620 > 100 µM | DU-145 > 100 µM | MDA-MB-231 > 100 µM | SK-MEL-5 > 100 µM | A549 67.6 µM | MDA-MB-435 > 100 µM | MDA-N > 100 µM | RXF 393 > 100 µM | HCT-116 > 100 µM | SR 38.5 µM

O=c1ccn(C2OC(CO)C(O)C2[Se]c2ccccc2)c(=O)[nH]1 (stereo not given)
inactive: MCF7 > 100 µM | OVCAR-5 > 100 µM | A498 > 100 µM | HCC 2998 92.3 µM | CAKI-1 > 100 µM | ACHN > 100 µM | SF-539 > 100 µM | SK-OV-3 > 100 µM | OVCAR-3 > 100 µM | SW-620 > 100 µM | DU-145 > 100 µM | CCRF-CEM > 100 µM | MDA-MB-231 > 100 µM | SK-MEL-5 > 100 µM | A549 > 100 µM | MDA-MB-435 > 100 µM | MDA-N > 100 µM | HCT-116 > 100 µM | SR > 100 µM

COc1cccc(-c2nc(N)c(C#N)c3c2CCS(=O)(=O)c2ccc(C)cc2-3)c1
inactive: MCF7 37.9 µM | OVCAR-5 > 100 µM | A498 30.1 µM | HCC 2998 17.6 µM | CAKI-1 9.98 µM | ACHN > 100 µM | SF-539 33.6 µM | SK-OV-3 46.7 µM | OVCAR-3 21 µM | SW-620 > 34.1 µM | DU-145 37.6 µM | CCRF-CEM 14.6 µM | MDA-MB-231 21.8 µM | SK-MEL-5 5.81 µM | A549 11.6 µM | MDA-MB-435 4.85 µM | MDA-N 3.08 µM | HCT-116 20 µM | SR 1.26 µM

O=CN(O)CC(=O)O
inactive: MCF7 > 100 µM | OVCAR-5 > 100 µM | A498 > 100 µM | HCC 2998 > 100 µM | ACHN > 100 µM | SF-539 > 100 µM | SK-OV-3 > 100 µM | OVCAR-3 > 100 µM | SW-620 > 100 µM | DU-145 > 100 µM | CCRF-CEM > 100 µM | MDA-MB-231 > 100 µM | SK-MEL-5 > 100 µM | A549 > 100 µM | MDA-MB-435 > 100 µM | MDA-N > 100 µM | RXF 393 > 100 µM | HCT-116 > 100 µM | SR > 100 µM

CN(C)Cc1cc(C(=O)/C=C/c2ccccc2)cc(CN(C)C)c1O
inactive: MCF7 30.8 µM | OVCAR-5 87.5 µM | A498 21.8 µM | HCC 2998 21.3 µM | CAKI-1 36.1 µM | ACHN 15.8 µM | SF-539 19.7 µM | OVCAR-3 18.7 µM | SW-620 18.2 µM | DU-145 33 µM | CCRF-CEM 19.4 µM | MDA-MB-231 21.9 µM | SK-MEL-5 16.6 µM | A549 23.4 µM | MDA-MB-435 31.6 µM | MDA-N 13.3 µM | RXF 393 16.5 µM | HCT-116 19.7 µM | SR 19.7 µM
